Test results as given in article PMC12198407, “Preclinical and first-in-human of purinostat mesylate, a novel selective HDAC I/IIb inhibitor, in relapsed/refractory multiple myeloma and lymphoma” (Signal Transduction and Targeted Therapy, 2025).
Like-named read-outs stand apart in the source and are kept apart here.

Assays:
[1] = Metabolite profiling in plasma, bile, urine, feces; assay type: in vivo, SD rats; settings: for share of plasma AUC0-96h: [14C] 3 mg/100 µCi/kg i.v.; for amount in bile, % of administered dose: 0 to 72 hours; for amount in feces, % of administered dose / amount in urine, % of administered dose: 0 to 168 hours
Experimental: Following a single intravenous administration of [14C] Purinostat Mesylate at a dose of 3 mg/100 µCi/kg in male and female rats, a total of 14 metabolites were identified, in addition to the parent compound. These were designated as M382, M396, M474, M475, M490, M516, M517, M532, M546, M548, M558, M666, M708a, and M708b. Among these, M382 is an acetylated product of the parent drug after N-dealkylation, M396 is a carboxylic acid derivative of M382, M474 is a reduction product of the parent drug, M475 is a hydroxylated product derived from the amino conversion of M474, M490 is a mono-oxidation product of M474, M516 is an acetylated product of M474, M517 is a hydroxylated product derived from the amino conversion of M516, M532 is an acetylated product of the parent drug, M546 is a methylated product of M532, M548 is a dioxidation product of M516, M558 is a glucuronic acid conjugate of M382, M666 is a glucuronic acid conjugate of the parent drug, M708a is a mono-oxidation glucuronic acid conjugate of M516, and M708b is a glucuronic acid conjugate of M532.

r/r MM = settings: cited from earlier work
[2] = tested on: human double-hit lymphoma SUDHL-6; assay: SUDHL-6 subcutaneous tumor model; assay type: in vivo, NOD/SCID mice; settings: positive control groups
MM1S xenograft = MM1S xenograft mouse model; assay type: in vivo, NOD-SCID mice
HDAC IIa/IV = tested on: HDAC IIa/IV; design: method as in PMID 27186676, PMID 31439580; settings: range over isoforms; read-out: IC50 against HDAC IIa/IV; cited from earlier work
[3] = molecular target: human ether-à-go-go-related gene (hERG) channel (Homo sapiens, UniProt Q12809); assay: hERG inhibition; assay type: biochemical
human ether-à-go-go-related gene (hERG) channel, sequence (Q12809 whole entry): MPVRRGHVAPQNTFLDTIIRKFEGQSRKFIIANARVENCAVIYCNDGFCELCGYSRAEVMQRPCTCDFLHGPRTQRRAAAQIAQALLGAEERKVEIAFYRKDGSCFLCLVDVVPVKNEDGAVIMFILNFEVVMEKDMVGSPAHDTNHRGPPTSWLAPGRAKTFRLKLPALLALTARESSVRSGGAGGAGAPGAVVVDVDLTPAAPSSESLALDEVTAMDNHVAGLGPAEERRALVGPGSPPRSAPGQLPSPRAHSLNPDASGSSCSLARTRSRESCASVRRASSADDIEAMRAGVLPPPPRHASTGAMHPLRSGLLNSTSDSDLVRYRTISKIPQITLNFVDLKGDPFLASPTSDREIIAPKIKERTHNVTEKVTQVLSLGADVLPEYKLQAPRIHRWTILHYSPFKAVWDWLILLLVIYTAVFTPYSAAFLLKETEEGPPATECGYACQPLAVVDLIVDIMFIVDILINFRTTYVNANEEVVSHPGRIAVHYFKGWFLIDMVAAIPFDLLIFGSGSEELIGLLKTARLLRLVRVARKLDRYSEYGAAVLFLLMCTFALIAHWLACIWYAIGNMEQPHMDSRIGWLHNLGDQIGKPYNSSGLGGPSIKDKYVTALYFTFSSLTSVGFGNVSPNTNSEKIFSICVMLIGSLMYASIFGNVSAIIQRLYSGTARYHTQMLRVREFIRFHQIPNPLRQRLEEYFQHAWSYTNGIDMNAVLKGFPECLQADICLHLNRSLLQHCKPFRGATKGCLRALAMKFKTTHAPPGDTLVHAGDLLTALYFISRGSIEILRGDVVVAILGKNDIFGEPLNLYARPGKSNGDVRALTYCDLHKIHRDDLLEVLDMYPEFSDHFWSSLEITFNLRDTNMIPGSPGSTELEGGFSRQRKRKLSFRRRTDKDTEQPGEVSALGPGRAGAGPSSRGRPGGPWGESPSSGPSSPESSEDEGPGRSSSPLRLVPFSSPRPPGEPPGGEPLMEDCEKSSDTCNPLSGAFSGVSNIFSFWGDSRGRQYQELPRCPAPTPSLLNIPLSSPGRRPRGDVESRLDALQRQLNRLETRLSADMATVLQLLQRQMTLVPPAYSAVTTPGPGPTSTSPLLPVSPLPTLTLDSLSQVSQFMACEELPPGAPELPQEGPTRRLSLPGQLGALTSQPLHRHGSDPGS

mouse B-cell lymphoma = assay: Ighmyc transgenic B-cell lymphoma model, survival; assay type: in vivo, mice; settings: positive control groups
[4] = tested on: diffuse large B-cell lymphoma (DLBCL) cells from patient C; assay: Cell apoptosis analysis, primary cells; assay type: cell-based, human; settings: 5 nM, 48 h
Experimental: (§1) CD138^+, CD38^+, or CD20^+ primary cells were obtained from plasma cell leukemia patients and DLBCL patients who had relapsed after multiple drug therapies. These patient samples were sourced from West China Hospital and had been approved by the clinical ethics committee of West China Hospital of Sichuan University (Chengdu, China). The clinical information of these patients was summarized in Supplementary Table 2. The patient primary cells were cultured in 6-well plates at a density of 1×10^6 cells/mL, and treated with control, PM, panobinostat, Pom and DXM at indicated concentrations for 48 hours. CD138, CD38, and CD20 monoclonal antibodies, Annexin V-APC and 7AAD apoptosis detection kits were used following the manufacturer’s instructions. The apoptosis cells were analyzed by flow cytometry (Thermo, AttuneTMNxT).

[5] = tested on: primary MM cells from relapsed patients A and B; assay: Cell apoptosis analysis, primary cells; assay type: cell-based, human; settings: 5 nM, 48 h
Experimental: as §1

[6] = tested on: BCR-ABL positive B-ALL PDX; assay: PDX model of clinical B-ALL patient; assay type: in vivo, NOD/SCID mice; settings: positive control
Source text: A clinical sample from a B-ALL patient was obtained, characterized by BCR-ABL positivity and relapse after first-line treatment.

MM1R = assay: Cell viability CCK8; assay type: cell-based; settings: Homo sapiens, MM.1R, 72 h, no unit in table, read-out: Antiproliferative activity IC50
Experimental: (§2) PM, panobinostat, Pom and DXM were dissolved in DMSO and stored at -20°C freezer. Cells were seeded at a density of 1.0-3.0 × 10^4 cells/well/100 μL in 96-well plates. After overnight incubation, cells were treated with the drug-containing culture medium for 24, 48, or 72 hours, and cell viability was measured using CCK8 (Oriscience, Chengdu, China) at the indicated time points with Biotek Cytation 3 at a wavelength of 450 nm. The IC50 values were calculated using GraphPad Prism 9.4.1, and Calcusyn 2.0 software was employed to calculate the CI values.

RL = assay: Cell viability CCK8; assay type: cell-based; settings: Homo sapiens, 72 h, no unit in table, read-out: Antiproliferative activity IC50
Experimental: as §2

MM1S = assay: Cell viability CCK8; assay type: cell-based; settings: Homo sapiens, MM1.S, 72 h, no unit in table (b9: nM), read-out: Antiproliferative activity IC50
Experimental: as §2

TMD-8 = assay: Cell viability CCK8; assay type: cell-based; settings: Homo sapiens, TMD8; TMD-8, 72 h; no unit in table; read-out: Antiproliferative activity IC50
Experimental: as §2

ARD = assay: Cell viability CCK8; assay type: cell-based; settings: Homo sapiens, 72 h, no unit in table, read-out: Antiproliferative activity IC50
Experimental: as §2

Raji = assay: Cell viability CCK8; assay type: cell-based; settings: Homo sapiens, 72 h, no unit in table, read-out: Antiproliferative activity IC50
Experimental: as §2

RPMI-8226 = assay: Cell viability CCK8; assay type: cell-based; settings: Homo sapiens; RPMI-8226, 72 h; no unit in table; read-out: Antiproliferative activity IC50
Experimental: as §2

Ramos = assay: Cell viability CCK8; assay type: cell-based; settings: Homo sapiens, 72 h, no unit in table, read-out: Antiproliferative activity IC50
Experimental: as §2

KMS-11 = assay: Cell viability CCK8; assay type: cell-based; settings: Homo sapiens; KMS-11, 72 h; no unit in table; read-out: Antiproliferative activity IC50
Experimental: as §2

RPMI-8226R = assay: Cell viability CCK8; assay type: cell-based; settings: Homo sapiens, 72 h, no unit in table, read-out: Antiproliferative activity IC50
Experimental: as §2

NKYS = assay: Cell viability CCK8; assay type: cell-based; settings: Homo sapiens, 72 h, no unit in table, read-out: Antiproliferative activity IC50
Experimental: as §2

AMO1 = assay: Cell viability CCK8; assay type: cell-based; settings: Homo sapiens; AMO1, 72 h; no unit in table; read-out: Antiproliferative activity IC50
Experimental: as §2

SUDHL-4 = assay: Cell viability CCK8; assay type: cell-based; settings: Homo sapiens, SU-DHL-4; SUDHL-4, 72 h; no unit in table; read-out: Antiproliferative activity IC50
Experimental: as §2

Karpas299 = assay: Cell viability CCK8; assay type: cell-based; settings: Homo sapiens, KARPAS-299; Karpas299, 72 h; no unit in table; read-out: Antiproliferative activity IC50
Experimental: as §2

OPM2 = assay: Cell viability CCK8; assay type: cell-based; settings: Homo sapiens, OPM-2; OPM2, 72 h; no unit in table; read-out: Antiproliferative activity IC50
Experimental: as §2

Daudi = assay: Cell viability CCK8; assay type: cell-based; settings: Homo sapiens, 72 h, no unit in table, read-out: Antiproliferative activity IC50
Experimental: as §2

[7] = tested on: human multiple myeloma RPMI-8226; assay type: in vivo
HDAC I/IIb = tested on: HDAC I/IIb; design: method as in PMID 27186676, PMID 31439580; settings: range over isoforms; read-out: IC50 against HDAC I/IIb; cited from earlier work
89 kinases = assay: Kinase panel; assay type: biochemical; settings: 1 μM
Experimental: The prototype drug Purinostat was tested for its inhibitory activity against 89 kinases that are strongly associated with tumors.

r/r DLBCL = settings: cited from earlier work
[8] = positive controls and combinations (PM 5 mg/kg in combinations)

CN(Cc1nc2c(N3CCOCC3)nc(-c3ccc(N)cc3)nc2n1C)c1ncc(C(=O)O)cn1 [M475]
share of plasma AUC0-96h ([1]; female rats): 4.71% to 9.05 | share of plasma AUC0-96h ([1]; male rats): 4.85% to 6.67

C/C=C1\NC(=O)[C@H]2CSSCC/C=C/[C@H](CC(=O)N[C@H](C(C)C)C(=O)N2)OC(=O)[C@H](C(C)C)NC1=O [romidepsin]
response, monotherapy in r/r MM (r/r MM; phase II): 4/12 patients SD

CC(=O)Nc1ccc(-c2nc(N3CCOCC3)c3nc(CN(C)c4ncc(C(N)=O)cn4)n(C)c3n2)cc1 [M516]
share of plasma AUC0-96h ([1]; female rats): 15.61% | amount in bile, % of administered dose ([1]; females): 5.77% to 7.49 | amount in feces, % of administered dose ([1]; females): 30.10% | amount in urine, % of administered dose ([1]; females): 2.35% to 2.49 | share of plasma AUC0-96h ([1]; male rats): 17.42% | amount in bile, % of administered dose ([1]; males): 4.75% to 8.74 | amount in feces, % of administered dose ([1]; males): 27.70% | amount in urine, % of administered dose ([1]; males): 0.88% to 3.01

CN(Cc1nc2c(N3CCOCC3)nc(-c3ccc(N)cc3)nc2n1C)c1ncc(C(N)=O)cn1 [M474]
share of plasma AUC0-96h ([1]; female rats): 13.75% | amount in bile, % of administered dose ([1]; females): 1.16% to 3.30 | amount in feces, % of administered dose ([1]; females): 0.79% to 5.53 | amount in urine, % of administered dose ([1]; females): 0.43% to 0.87 | share of plasma AUC0-96h ([1]; male rats): 13.79% | amount in bile, % of administered dose ([1]; males): 0.97% to 4.38 | amount in feces, % of administered dose ([1]; males): 1.27% to 6.00 | amount in urine, % of administered dose ([1]; males): 1.02% to 1.92

Cc1[nH]c2ccccc2c1CCNCc1ccc(/C=C/C(=O)NO)cc1 [panobinostat, reference compound]
T/C [2]: 92.55±13.13% | tumor inhibition rate [2]: 12.92% | tumor inhibition rate (MM1S xenograft; 10 mg/kg i.v. three times a week): 49.37% | relative tumor growth rate T/C (MM1S xenograft; positive control groups): 45.1% | tumor inhibition rate (MM1S xenograft; positive control groups, regimens per Table S9): 49.37% | median survival time (MM1S xenograft; satellite group, positive control): 26.5 days | IC50 (HDAC IIa/IV): 2.7 to 531 nM | response, monotherapy in r/r MM (r/r MM; phase II): 1 PR and 1 MR in 38 patients | IC50 [3]: 3500 nM | median survival time (mouse B-cell lymphoma): 20 days | apoptosis [4]: 20.49% | apoptosis ([5]; patient A): 54.5% | apoptosis ([5]; patient B): 40.1% | median survival time [6]: 17 days | IC50 (MM1R): 0.87 ± 0.01 nM | IC50 (RL): 6.43 ± 0.45 nM | IC50 (MM1S): 2.87 ± 0.12 nM | IC50 (TMD-8): 9.12 ± 0.25 nM | IC50 (ARD): 1.82 ± 0.16 nM | IC50 (Raji): 5.48 ± 4.81 nM | IC50 (RPMI-8226): 9.3 ± 0.55 nM | IC50 (Ramos): 5 ± 0.53 nM | IC50 (KMS-11): 7.94 ± 0.59 nM | IC50 (RPMI-8226R): 5.56 ± 0.49 nM | IC50 (NKYS): 4.81 ± 0.14 nM | IC50 (AMO1): 3.45 ± 0.5 nM | IC50 (SUDHL-4): 6.72 ± 0.49 nM | IC50 (Karpas299): 4.03 ± 0.2 nM | IC50 (OPM2): 4.4 ± 0.27 nM | IC50 (Daudi): 6.99 ± 3.9 nM | T/C [7, 8]: 35.1% | tumor inhibition rate [7, 8]: 59.79% | median survival time ([7]; satellite groups, PM 5 mg/kg alone or combined, control regimens): 52.5 days | IC50 (HDAC I/IIb): 2.1 to 277 nM

CC(=O)Nc1ccc(-c2nc(N3CCOCC3)c3nc(CN(C)c4ncc(C(=O)NO)cn4)n(C)c3n2)cc1 [M532]
share of plasma AUC0-96h ([1]; female rats): 4.71% to 9.05 | amount in urine, % of administered dose ([1]; females): 0.43% to 0.87 | share of plasma AUC0-96h ([1]; male rats): 4.85% to 6.67 | amount in urine, % of administered dose ([1]; males): 1.02% to 1.92

CC(=O)Nc1ccc(-c2nc(N3CCOCC3)c3nc(CN(C)c4ncc(C(=O)O)cn4)n(C)c3n2)cc1 [M517]
amount in bile, % of administered dose ([1]; females): 1.16% to 3.30 | amount in feces, % of administered dose ([1]; females): 0.79% to 5.53 | amount in bile, % of administered dose ([1]; males): 0.97% to 4.38 | amount in feces, % of administered dose ([1]; males): 1.27% to 6.00

CONC(=O)c1cnc(N(C)Cc2nc3c(N4CCOCC4)nc(-c4ccc(NC(C)=O)cc4)nc3n2C)nc1 [M546]
share of plasma AUC0-96h ([1]; female rats): 4.71% to 9.05 | amount in bile, % of administered dose ([1]; females): 1.16% to 3.30 | amount in feces, % of administered dose ([1]; females): 0.79% to 5.53 | share of plasma AUC0-96h ([1]; male rats): 4.85% to 6.67 | amount in bile, % of administered dose ([1]; males): 0.97% to 4.38 | amount in feces, % of administered dose ([1]; males): 1.27% to 6.00

CN(Cc1nc2c(N3CCOCC3)nc(-c3ccc(N)cc3)nc2n1C)c1ncc(C(=O)NO)cn1 [Purinostat]
inhibitory activity against 89 kinases (89 kinases): no significant inhibitory activity

O=C(/C=C/c1cccc(S(=O)(=O)Nc2ccccc2)c1)NO [belinostat]
ORR in r/r DLBCL (r/r DLBCL; SWOG S0520): 10.5%

O=C(CCCCCCC(=O)Nc1ccccc1)NO [vorinostat]
response, monotherapy in r/r MM (r/r MM; phase I): 1 MR in 10 patients | ORR in r/r DLBCL (r/r DLBCL): 6%
